Several values for one entry are separate records, joined by “and”; a condition that tells them apart may be missing. Equal entries are not always repeated.
Key:
Test in all cases: LanthaScreen Eu Kinase Binding Assay, panel of 486 biochemical kinase assays
various kinases [1] = biological target: various kinases (Homo sapiens, UniProt Q32MK0); conditions: MLCK (MLCK2)
various kinases [2] = biological target: various kinases (Homo sapiens, UniProt Q15208); conditions: kinase STK38 (NDR); LanthaScreen Binding
various kinases [3] = biological target: various kinases (Homo sapiens, UniProt Q13873); conditions: BMPR2
various kinases [4] = biological target: various kinases (Homo sapiens, UniProt O00238); conditions: BMPR1B (ALK6)
various kinases [5] = biological target: various kinases (Homo sapiens, UniProt Q16832, N456S); conditions: DDR2 N456S
various kinases [6] = biological target: various kinases (Homo sapiens, UniProt Q99558); conditions: MAP3K14 (NIK)
various kinases [7] = biological target: various kinases (Homo sapiens, UniProt Q13705); conditions: ACVR2B
various kinases [8] = biological target: various kinases (Homo sapiens, UniProt Q9UF33); conditions: EPHA6
various kinases [9] = biological target: T1, various kinases (Homo sapiens, UniProt Q8IYT8); conditions: kinase ULK2; LanthaScreen Binding
T1 sequence (Q8IYT8 1-1036): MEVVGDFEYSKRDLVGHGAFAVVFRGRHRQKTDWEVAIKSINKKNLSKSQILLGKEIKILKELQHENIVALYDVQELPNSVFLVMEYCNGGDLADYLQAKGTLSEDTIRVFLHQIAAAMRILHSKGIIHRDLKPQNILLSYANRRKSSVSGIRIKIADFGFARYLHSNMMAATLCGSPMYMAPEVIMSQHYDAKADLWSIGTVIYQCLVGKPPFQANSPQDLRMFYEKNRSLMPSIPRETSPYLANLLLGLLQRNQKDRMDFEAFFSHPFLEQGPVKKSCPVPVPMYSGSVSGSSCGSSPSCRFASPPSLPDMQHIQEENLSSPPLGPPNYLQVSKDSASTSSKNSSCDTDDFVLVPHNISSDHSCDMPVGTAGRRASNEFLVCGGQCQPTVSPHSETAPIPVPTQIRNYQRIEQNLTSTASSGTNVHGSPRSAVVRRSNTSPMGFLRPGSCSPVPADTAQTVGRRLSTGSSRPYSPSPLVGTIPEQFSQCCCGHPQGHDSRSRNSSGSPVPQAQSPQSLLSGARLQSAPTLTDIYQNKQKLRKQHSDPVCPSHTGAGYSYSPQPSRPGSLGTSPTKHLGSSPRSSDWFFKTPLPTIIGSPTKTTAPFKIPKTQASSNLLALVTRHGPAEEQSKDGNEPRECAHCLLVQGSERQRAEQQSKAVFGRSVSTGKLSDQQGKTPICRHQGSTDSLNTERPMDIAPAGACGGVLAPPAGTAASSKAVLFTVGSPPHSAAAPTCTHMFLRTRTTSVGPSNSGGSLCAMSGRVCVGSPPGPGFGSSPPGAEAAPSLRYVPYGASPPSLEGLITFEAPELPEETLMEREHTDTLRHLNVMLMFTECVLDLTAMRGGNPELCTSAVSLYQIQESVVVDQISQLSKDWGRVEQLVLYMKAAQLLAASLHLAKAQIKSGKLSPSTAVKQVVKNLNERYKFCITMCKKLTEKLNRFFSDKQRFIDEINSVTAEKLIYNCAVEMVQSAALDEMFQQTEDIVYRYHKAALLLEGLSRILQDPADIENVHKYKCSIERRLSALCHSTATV

various kinases [10] = biological target: various kinases (Homo sapiens, UniProt P00519, H396P); conditions: ABL1 H396P
various kinases [11] = biological target: various kinases (Homo sapiens, UniProt P15056); conditions: BRAF
various kinases [12] = biological target: various kinases (Homo sapiens, UniProt P50750)
various kinases [13] = biological target: various kinases (Homo sapiens, UniProt Q14004); conditions: CDK13/cyclin K
various kinases [14] = biological target: various kinases (Homo sapiens, UniProt Q15746); conditions: MYLK (MLCK)
various kinases [15] = biological target: T2, various kinases (Homo sapiens, UniProt P42680); conditions: kinase TEC; LanthaScreen Binding
T2 sequence (P42680 1-631): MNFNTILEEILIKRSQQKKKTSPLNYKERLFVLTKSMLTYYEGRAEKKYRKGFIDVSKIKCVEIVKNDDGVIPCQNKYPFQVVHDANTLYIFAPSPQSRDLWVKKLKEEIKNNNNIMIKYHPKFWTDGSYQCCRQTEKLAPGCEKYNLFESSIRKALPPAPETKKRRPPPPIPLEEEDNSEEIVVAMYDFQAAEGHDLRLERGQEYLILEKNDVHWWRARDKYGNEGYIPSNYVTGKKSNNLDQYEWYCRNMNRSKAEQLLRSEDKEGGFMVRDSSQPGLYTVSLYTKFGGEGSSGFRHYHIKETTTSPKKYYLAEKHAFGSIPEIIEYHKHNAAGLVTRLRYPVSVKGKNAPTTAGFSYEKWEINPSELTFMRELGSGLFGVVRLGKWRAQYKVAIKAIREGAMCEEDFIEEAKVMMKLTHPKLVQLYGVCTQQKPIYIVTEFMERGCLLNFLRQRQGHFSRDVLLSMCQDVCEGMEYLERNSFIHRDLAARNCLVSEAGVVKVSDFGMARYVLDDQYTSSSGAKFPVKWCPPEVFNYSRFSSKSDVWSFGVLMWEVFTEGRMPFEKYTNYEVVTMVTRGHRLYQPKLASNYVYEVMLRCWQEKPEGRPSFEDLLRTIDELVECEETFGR

various kinases [16] = biological target: various kinases (Homo sapiens, UniProt P10721, N822K); conditions: KIT N822K
various kinases [17] = biological target: various kinases (Homo sapiens, UniProt P04049, Y340D/Y341D); conditions: kinase RAF1 (cRAF) Y340D Y341D; LanthaScreen Binding
various kinases [18] = biological target: various kinases (Homo sapiens, UniProt P22612); conditions: kinase PRKACG (PRKAC gamma); LanthaScreen Binding
Sequence of various kinases (Homo sapiens, UniProt P22612) (P22612 whole entry): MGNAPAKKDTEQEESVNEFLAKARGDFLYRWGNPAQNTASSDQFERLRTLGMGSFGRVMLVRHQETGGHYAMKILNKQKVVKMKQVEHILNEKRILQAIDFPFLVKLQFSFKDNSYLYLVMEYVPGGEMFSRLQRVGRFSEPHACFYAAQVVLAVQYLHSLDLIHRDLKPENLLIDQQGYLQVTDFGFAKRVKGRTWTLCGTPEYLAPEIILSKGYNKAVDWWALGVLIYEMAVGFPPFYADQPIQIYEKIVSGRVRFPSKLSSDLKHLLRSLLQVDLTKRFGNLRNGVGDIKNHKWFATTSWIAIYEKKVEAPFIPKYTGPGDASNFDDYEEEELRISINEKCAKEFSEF

Sequence of various kinases (Homo sapiens, UniProt Q15208) (Q15208 whole entry): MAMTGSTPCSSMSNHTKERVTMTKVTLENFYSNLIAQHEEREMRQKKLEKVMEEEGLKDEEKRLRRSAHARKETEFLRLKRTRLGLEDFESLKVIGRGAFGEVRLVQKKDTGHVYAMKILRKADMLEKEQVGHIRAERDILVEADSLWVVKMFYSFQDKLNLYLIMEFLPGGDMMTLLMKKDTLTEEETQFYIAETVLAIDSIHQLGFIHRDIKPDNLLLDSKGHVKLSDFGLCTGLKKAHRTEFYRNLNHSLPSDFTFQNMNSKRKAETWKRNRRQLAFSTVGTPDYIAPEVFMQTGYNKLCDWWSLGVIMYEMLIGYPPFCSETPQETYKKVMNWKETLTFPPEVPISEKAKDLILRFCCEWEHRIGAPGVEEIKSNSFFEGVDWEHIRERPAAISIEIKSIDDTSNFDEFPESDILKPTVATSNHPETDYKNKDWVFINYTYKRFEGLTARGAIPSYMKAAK
Sequence of various kinases (Homo sapiens, UniProt P50750) (P50750 whole entry): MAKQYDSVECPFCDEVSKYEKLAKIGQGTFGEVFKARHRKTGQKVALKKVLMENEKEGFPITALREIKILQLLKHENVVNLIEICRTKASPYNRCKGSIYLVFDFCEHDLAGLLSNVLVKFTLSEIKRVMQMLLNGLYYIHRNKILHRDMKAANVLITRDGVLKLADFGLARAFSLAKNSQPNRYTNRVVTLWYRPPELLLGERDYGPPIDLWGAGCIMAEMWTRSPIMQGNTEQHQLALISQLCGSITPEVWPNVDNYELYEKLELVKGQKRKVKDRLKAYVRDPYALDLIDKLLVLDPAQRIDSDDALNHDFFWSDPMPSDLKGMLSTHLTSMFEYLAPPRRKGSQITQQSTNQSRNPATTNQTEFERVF
Sequence of various kinases (Homo sapiens, UniProt P04049, Y340D/Y341D) (P04049 whole entry Y340D/Y341D): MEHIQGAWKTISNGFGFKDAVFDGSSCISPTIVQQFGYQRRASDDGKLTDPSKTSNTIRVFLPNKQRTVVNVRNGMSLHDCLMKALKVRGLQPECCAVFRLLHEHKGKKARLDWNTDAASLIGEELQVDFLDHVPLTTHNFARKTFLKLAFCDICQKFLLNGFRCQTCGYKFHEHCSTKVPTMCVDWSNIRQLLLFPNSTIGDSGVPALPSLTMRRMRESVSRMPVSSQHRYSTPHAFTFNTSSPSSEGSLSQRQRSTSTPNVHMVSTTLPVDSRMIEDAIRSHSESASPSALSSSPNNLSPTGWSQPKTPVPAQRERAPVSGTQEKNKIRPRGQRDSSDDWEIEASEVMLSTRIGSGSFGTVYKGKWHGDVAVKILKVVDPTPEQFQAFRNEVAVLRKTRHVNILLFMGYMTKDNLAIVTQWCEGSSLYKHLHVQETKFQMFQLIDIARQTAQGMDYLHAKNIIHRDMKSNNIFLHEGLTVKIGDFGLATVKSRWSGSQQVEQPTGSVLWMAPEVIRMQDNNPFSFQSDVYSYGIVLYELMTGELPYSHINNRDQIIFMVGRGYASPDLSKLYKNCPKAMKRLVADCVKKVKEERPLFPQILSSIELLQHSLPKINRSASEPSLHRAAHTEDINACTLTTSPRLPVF
Sequence of various kinases (Homo sapiens, UniProt Q9UF33) (Q9UF33 23-1036): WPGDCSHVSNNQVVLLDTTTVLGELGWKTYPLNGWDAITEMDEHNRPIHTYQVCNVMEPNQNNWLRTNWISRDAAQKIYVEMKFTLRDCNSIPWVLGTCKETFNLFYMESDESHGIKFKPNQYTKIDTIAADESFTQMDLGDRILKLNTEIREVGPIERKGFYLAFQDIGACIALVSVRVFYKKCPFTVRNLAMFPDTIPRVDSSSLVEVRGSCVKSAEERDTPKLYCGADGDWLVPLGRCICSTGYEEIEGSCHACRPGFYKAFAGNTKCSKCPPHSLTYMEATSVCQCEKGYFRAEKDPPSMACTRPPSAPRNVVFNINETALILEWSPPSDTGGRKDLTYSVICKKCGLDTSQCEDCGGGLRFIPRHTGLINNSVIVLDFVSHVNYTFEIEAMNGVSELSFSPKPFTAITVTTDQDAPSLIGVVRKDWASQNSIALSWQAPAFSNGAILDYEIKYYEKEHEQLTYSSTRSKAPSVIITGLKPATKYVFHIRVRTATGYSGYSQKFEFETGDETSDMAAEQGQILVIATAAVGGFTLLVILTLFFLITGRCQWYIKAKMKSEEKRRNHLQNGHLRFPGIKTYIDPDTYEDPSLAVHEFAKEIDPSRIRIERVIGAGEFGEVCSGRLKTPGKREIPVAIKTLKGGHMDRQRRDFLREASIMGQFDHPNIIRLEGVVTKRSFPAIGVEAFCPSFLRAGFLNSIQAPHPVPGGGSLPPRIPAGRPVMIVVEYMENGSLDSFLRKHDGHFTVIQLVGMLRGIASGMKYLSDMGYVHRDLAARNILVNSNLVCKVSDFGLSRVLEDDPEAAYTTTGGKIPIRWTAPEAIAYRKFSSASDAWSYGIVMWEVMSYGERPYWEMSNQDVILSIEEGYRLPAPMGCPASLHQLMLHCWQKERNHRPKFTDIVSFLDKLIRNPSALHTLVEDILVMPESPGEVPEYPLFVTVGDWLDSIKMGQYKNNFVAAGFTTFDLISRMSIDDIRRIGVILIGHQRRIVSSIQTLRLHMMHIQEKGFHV
Sequence of various kinases (Homo sapiens, UniProt Q15746) (Q15746 whole entry): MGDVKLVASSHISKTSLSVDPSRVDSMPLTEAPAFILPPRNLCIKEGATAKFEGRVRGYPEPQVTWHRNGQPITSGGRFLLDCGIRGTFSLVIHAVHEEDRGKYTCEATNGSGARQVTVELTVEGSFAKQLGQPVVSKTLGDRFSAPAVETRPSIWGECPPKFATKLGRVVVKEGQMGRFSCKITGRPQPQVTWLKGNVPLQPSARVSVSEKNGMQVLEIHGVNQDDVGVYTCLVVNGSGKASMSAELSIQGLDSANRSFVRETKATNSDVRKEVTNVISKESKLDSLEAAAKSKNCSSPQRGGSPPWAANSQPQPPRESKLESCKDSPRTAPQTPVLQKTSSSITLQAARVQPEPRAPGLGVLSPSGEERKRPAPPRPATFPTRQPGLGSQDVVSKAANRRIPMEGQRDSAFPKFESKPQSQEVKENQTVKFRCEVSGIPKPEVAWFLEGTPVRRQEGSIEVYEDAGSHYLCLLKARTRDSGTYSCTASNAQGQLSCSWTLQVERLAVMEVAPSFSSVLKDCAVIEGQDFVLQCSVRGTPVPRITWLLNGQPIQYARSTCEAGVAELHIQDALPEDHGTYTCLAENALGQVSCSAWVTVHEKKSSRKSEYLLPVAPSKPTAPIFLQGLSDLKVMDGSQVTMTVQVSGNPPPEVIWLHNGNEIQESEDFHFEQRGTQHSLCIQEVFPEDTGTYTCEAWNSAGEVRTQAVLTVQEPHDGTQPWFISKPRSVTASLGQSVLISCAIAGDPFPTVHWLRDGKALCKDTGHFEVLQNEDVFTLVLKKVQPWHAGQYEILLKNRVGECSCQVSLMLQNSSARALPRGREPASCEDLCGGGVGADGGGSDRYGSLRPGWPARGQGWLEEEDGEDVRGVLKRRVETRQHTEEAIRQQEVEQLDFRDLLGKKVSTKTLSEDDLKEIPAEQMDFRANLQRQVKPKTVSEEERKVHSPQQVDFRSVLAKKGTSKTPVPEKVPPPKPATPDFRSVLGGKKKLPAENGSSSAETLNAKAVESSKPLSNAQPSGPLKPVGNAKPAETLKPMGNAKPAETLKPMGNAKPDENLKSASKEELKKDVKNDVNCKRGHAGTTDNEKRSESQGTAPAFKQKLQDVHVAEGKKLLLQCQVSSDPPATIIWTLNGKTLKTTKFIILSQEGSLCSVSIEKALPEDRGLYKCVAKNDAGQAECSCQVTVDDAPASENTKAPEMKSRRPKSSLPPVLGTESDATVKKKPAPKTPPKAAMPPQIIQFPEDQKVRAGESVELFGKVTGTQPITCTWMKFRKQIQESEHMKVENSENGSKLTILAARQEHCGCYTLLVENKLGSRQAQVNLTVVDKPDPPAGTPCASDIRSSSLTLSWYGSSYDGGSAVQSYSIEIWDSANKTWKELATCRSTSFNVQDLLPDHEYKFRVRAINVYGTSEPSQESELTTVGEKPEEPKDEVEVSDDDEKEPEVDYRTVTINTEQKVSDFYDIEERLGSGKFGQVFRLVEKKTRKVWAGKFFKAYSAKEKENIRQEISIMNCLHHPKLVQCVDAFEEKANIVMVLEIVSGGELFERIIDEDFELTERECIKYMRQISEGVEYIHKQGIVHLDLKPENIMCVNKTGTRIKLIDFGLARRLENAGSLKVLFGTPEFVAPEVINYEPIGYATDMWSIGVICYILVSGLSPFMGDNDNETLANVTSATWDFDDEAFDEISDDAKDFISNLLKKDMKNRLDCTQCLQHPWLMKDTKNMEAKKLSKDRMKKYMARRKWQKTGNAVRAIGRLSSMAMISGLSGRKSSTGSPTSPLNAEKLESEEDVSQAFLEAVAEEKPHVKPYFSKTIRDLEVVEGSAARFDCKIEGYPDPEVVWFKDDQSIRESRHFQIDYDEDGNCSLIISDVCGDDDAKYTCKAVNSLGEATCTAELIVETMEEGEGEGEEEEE

How did the “% Inhibition” value (various kinases [1]) turn out when `COc1ccc2c(c1)[C@]1(C[C@H]1c1ccc3c(/C=C/c4ccc(CN5C[C@@H](C)O[C@@H](C)C5)cc4)n[nH]c3c1)C(=O)N2` [CFI-400945] was run?
The value was 1% and 6%.

What about the “% Inhibition Average” value (various kinases [2]) of the same compound?
The value was 0%.

What about the “% Inhibition Duplicate #1” value (various kinases [2]) of the same compound?
Its value is -5%.

What about the “% Inhibition Duplicate #2” value (various kinases [2]) of the same compound?
Its value is 4%.

And the “% Inhibition” value (various kinases [3])?
Its value is 0% and 2%.

And the “% Inhibition” value (various kinases [4])?
The value was 5% and 8%.

And the “% Inhibition” value (various kinases [5])?
The value was 77% and 74%.

What about the “% Inhibition” value (various kinases [6]) of the same compound?
Its value is 0% and 1%.

What about the “% Inhibition” value (various kinases [7]) of the same compound?
The value was 4% and 0%.

And the “% Inhibition” value (various kinases [8])?
The value was 18% and 24%.

And the “% Inhibition Average” value (various kinases [9])?
Its value is 6%.

What about the “% Inhibition Duplicate #1” value (various kinases [9]) of the same compound?
The value was 2%.

And the “% Inhibition Duplicate #2” value (various kinases [9])?
The value was 11%.

And the “% Inhibition” value (various kinases [10])?
Its value is 72% and 73%.

What about the “% Inhibition” value (various kinases [11]) of the same compound?
The value was 0% and 6%.

What about the “% Inhibition” value (various kinases [12]; CDK9 (Inactive)) of the same compound?
Its value is 13% and 12%.

And the “% Inhibition” value (various kinases [12]; CDK9/cyclin K)?
The value was -3% and -6%.

What about the “% Inhibition” value (various kinases [13]) of the same compound?
Its value is -6% and 0%.

What about the “% Inhibition” value (various kinases [14]) of the same compound?
Its value is 0% and -2%.

What about the “% Inhibition Average” value (various kinases [15]) of the same compound?
The value was -1%.

And the “% Inhibition Duplicate #1” value (various kinases [15])?
Its value is 1%.

What about the “% Inhibition Duplicate #2” value (various kinases [15]) of the same compound?
The value was -3%.

And the “% Inhibition” value (various kinases [16])?
Its value is 6% and 3%.

What about the “% Inhibition Average” value (various kinases [17]) of the same compound?
Its value is -3%.

And the “% Inhibition Duplicate #1” value (various kinases [17])?
Its value is -6%.

What about the “% Inhibition Duplicate #2” value (various kinases [17]) of the same compound?
Its value is -1%.

And the “% Inhibition Average” value (various kinases [18])?
The value was 18%.

And the “% Inhibition Duplicate #1” value (various kinases [18])?
The value was 25%.

And the “% Inhibition Duplicate #2” value (various kinases [18])?
Its value is 11%.
